Data as given in PMC10288352 (IET Nanobiotechnology, 2023).
Where two headings read alike, the source gives them in different places.

Legend:
[1] = system: PO-induced hyperuricemia mouse model; assay: PO-induced hyperuricemic mouse model, serum uric acid; format: in vivo, ICR mice; conditions: mice
Procedure: ICR mice weighing 25 ± 2 g were purchased from Wushi Dongwu Co., LTD (Fujian, China). The protocol for animal experiments (#202030) was approved by the Animal Use and Care Committee of Putian University. To establish a hyperuricemic mouse model, we followed our previously reported method, which involved intraperitoneal injection of PO at a dose of 250 mg/kg. […] Mice in all groups except the CG were given PO to raise serum uric acid levels, while the CG mice were given 1 ml of 0.9% NaCl. […] After 2 hours, blood was obtained from the tail vein and was centrifuged at 4000 rpm for 8 min. The serum obtained was kept at −80 °C for the following assay.

Xanthine oxidase (XO) [2] = molecular target: T1, Xanthine oxidase (XO) (Bos taurus, UniProt P80457); assay: Kinetic analysis of XO inhibition (Lineweaver-Burk); format: biochemical, cow
Procedure: Here, [S] and [I] represent the substrate (xanthine) and inhibitor (EA) concentrations, respectively. The reaction rate and maximum reaction rate are represented by ν and Vmax, respectively. K i and K is indicate the inhibition constants of EA binding with the free XO and XO‐xanthine complex, respectively. The Michaelis‐Menten constant is denoted by the symbol K m . The type of inhibition exerted by EA on XO was determined using Equation (1).

xanthine oxidase (XO) [3] = molecular target: xanthine oxidase (XO); parameters: method as in doi:10.2991/efood.k.190802.004; conditions: read-out: IC50 (XO inhibition); cited from earlier work
Xanthine oxidase (XO) [4] = molecular target: T1, Xanthine oxidase (XO); assay: Fluorescence titration (quenching) assay; format: binding, cow; conditions: for Kq (quenching rate constant): τ0 10^−8 s
Procedure: An aliquot of XO solution (2.0 ml, 0.04 U/mL) was placed in a quartz cuvette (1 cm) and titrated with 0.1 ml EA solution (0.1 mmol/L) each time. The mixture was then placed in a thermostatic bath, and after 5 min, fluorescence spectra ranging from 290 to 500 nm (excitation: 280 nm) were recorded at 298, 304 and 310 K using the FS5 spectrofluorometer (Edinburgh Instruments, England). The fluorescence background was corrected by subtracting the PBS blank. Additionally, to account for EA's UV absorption, all fluorescence data were corrected according to the following equation: (4) Fc=Fme^A1+A2/2
Here, F m and F c represent the measured and corrected fluorescence, respectively, and A1 and A2 denote EA UV absorbance at 280 nm (excitation wavelength) and 404 nm (emission wavelength), respectively.
The Stern‐Volmer equation shown below was used to distinguish the quenching mechanism. (5) F0/F=1+Kqτ0[Q]=1+Ksv[Q]
The fluorescence intensities with and without EA are indicated by the symbols F and F 0, respectively. The quenching rate constant of the biological macromolecule is represented by K q . The average lifetime of fluorophore is represented by the symbol τ0 (10^−8 s). K SV is the dynamic quenching constant of Stern–Volmer; [Q] is the concentration of EA. […] Then K SV values at 298, 304 and 310 K were calculated to be 1.881 × 10^5, 1.661 × 10^5, and 1.455 × 10^5 L/mol, respectively, using the Stern‐Volmer equation. […] Similarly, the K q values at 298, 304 and 310 K were determined to be 1.881 × 10^13, 1.661 × 10^13, and 1.455 × 10^13 L/(mol·s), respectively.
(6) logF0−F/F=logKa+nlog[Q]
To determine the interaction forces between EA and XO, such as hydrogen bonding, hydrophobic interaction, van der Waals force, and electrostatic force, thermodynamic parameters including […], and Gibbs free energy (△G) were analysed using the Van't Hoff Equation (7) and Gibbs‐Helmholtz Equation (8) at different temperatures. The equations are as follows: (7) logKa=−∆H/2.303RT+∆S/2.303R (8) ∆G=∆H−T∆S

mice = assay: NOEL estimated for mice from rat value; format: in vivo
rats = conditions: cited from earlier work
Xanthine oxidase (XO) [5] = molecular target: T1, Xanthine oxidase (XO); assay: Determination of xanthine oxidase activity (UV, 290 nm); format: biochemical, cow
Procedure: Xanthine oxidase activity was determined following a previously reported method [20]. The test compounds were dissolved in DMSO, and the resulting solutions were appropriately diluted for the assay. Xanthine oxidase and xanthine solutions with concentrations of 0.04 U/mL and 0.1 mmol/L, respectively, were prepared using 0.2 mol/L phosphate buffered solution (PBS, pH 7.4) as the solvent. An aliquot of the test solution (0.1 ml) with various concentrations was added separately to XO solution (0.2 ml). The resulting solution was well mixed and incubated for 5 min at 298 K. Then, the substrate (xanthine) solution was pipetted into the mixture to initiate the enzymatic reaction, and the OD value of the resulting solution was recorded every 60 s at 290 nm using a UV spectrometer (UV 2550, SHIMADZU) at 298 K. Xanthine oxidase activity was determined without adding an inhibitor and was considered 100%. […] Each test was performed three times (n = 3). The equation for calculating the relative activity (RA) of XO is as follows: RA (%) = R i/R c × 100%, where R i and R c represent the reaction rates of the solution with and without inhibitors, respectively. The IC50 value was calculated based on the plot of RA versus inhibitor concentration.

xanthine oxidase (XO) [6] = molecular target: xanthine oxidase (XO); parameters: method as in PMID 2393948; conditions: read-out: IC50 (XO inhibition); cited from earlier work
xanthine oxidase (XO) [7] = molecular target: xanthine oxidase (XO); parameters: method as in PMID 29567192; conditions: fluorescence quenching technology; read-out: IC50 (XO inhibition); cited from earlier work
xanthine oxidase (XO) [8] = conditions: read-out: IC50 (XO inhibition); cited from earlier work
[9] = cited from earlier work
xanthine oxidase (XO) [10] = molecular target: xanthine oxidase (XO); parameters: method as in PMID 15234783; conditions: read-out: IC50 (XO inhibition); cited from earlier work
[11] = Van't Hoff equation, 298, 304 and 310 K

T1 sequence (P80457 whole entry): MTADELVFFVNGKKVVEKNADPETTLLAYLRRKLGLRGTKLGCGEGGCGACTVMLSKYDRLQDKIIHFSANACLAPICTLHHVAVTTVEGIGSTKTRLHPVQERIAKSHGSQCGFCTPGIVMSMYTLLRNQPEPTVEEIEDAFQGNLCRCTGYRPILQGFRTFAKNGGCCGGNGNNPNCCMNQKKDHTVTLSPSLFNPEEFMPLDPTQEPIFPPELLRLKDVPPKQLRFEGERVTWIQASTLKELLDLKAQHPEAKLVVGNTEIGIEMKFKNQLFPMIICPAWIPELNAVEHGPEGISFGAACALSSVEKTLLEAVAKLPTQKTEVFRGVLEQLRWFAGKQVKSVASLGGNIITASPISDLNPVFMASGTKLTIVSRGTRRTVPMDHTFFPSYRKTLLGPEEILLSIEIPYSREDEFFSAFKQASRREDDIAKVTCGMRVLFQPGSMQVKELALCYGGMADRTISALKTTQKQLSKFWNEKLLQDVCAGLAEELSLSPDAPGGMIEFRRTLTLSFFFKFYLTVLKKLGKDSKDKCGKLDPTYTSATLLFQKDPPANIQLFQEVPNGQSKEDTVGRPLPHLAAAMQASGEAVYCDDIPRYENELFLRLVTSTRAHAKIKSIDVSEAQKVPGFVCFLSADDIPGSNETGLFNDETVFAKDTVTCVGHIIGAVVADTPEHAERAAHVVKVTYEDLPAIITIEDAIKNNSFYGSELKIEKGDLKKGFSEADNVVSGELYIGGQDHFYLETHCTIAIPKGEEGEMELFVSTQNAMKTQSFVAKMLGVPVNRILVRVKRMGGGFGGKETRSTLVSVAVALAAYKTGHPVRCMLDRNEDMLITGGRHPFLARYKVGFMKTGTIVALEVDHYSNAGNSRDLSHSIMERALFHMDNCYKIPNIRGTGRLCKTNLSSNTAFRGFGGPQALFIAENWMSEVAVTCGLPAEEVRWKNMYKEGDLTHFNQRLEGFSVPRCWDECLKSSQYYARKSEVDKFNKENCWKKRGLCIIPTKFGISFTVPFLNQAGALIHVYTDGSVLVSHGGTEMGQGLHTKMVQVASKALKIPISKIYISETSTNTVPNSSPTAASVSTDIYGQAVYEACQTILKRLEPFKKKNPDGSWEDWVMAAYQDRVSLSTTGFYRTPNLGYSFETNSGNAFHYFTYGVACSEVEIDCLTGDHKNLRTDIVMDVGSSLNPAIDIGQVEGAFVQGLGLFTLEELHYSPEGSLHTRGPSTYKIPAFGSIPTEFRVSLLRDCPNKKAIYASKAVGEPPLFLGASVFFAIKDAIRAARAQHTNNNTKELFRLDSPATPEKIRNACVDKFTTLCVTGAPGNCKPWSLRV

Compound: Oc1ncnc2[nH]ncc12 [allopurinol, reference compound]
- Serum uric acid ([1]; 20 mg/kg intragastrically after PO 250 mg/kg i.p., MG 6.18 ± 0.18, CG 2.16 ± 0.51): 2.01 ± 0.34 mg/dL

Compound: O=c1oc2c(O)c(O)cc3c(=O)oc4c(O)c(O)cc1c4c23 [EA, Ellagic acid]
- Type of inhibition on XO (Xanthine oxidase (XO) [2]; Lineweaver-Burk plot): mixed‐type inhibitor
- Kis (inhibition constant, binding with XO-xanthine complex) (Xanthine oxidase (XO) [2]; [XO] = 0.04 U/mL, xanthine 6.25 to 50 μmol/L): 57.24 ± 0.23 µmol/L
- Ki (Xanthine oxidase (XO) [2]; [XO] = 0.04 U/mL, xanthine 6.25 to 50 μmol/L, read-out: Ki (inhibition constant, binding with free XO)): 10.6 ± 0.08 µM
- IC50 (xanthine oxidase (XO) [3]): 18 µM
- Fluorescence quenching mechanism (Xanthine oxidase (XO) [4]): static quenching
- KSV (Stern-Volmer dynamic quenching constant) (Xanthine oxidase (XO) [4]; 298 K): 188100 L/mol
- Ksv (Xanthine oxidase (XO) [4]; 298 K): 1.881 ± 0.05 ×10^5 L/mol
- n (number of binding sites) (Xanthine oxidase (XO) [4]; 298 K): 1.183 ± 0.02
- △G (Xanthine oxidase (XO) [4]; 298 K): -24.07 ± 0.28 kJ/mol
- Kq (quenching rate constant) (Xanthine oxidase (XO) [4]; 298 K): 1.881e+13 M⁻¹ s⁻¹
- KSV (Stern-Volmer dynamic quenching constant) (Xanthine oxidase (XO) [4]; 304 K): 166100 L/mol
- Ksv (Xanthine oxidase (XO) [4]; 304 K): 1.661 ± 0.03 ×10^5 L/mol
- n (number of binding sites) (Xanthine oxidase (XO) [4]; 304 K): 1.236 ± 0.04
- △G (Xanthine oxidase (XO) [4]; 304 K): -24.09 ± 0.32 kJ/mol
- Kq (quenching rate constant) (Xanthine oxidase (XO) [4]; 304 K): 1.661e+13 M⁻¹ s⁻¹
- KSV (Stern-Volmer dynamic quenching constant) (Xanthine oxidase (XO) [4]; 310 K): 145500 L/mol
- Ksv (Xanthine oxidase (XO) [4]; 310 K): 1.455 ± 0.04 ×10^5 L/mol
- n (number of binding sites) (Xanthine oxidase (XO) [4]; 310 K): 1.308 ± 0.02
- △G (Xanthine oxidase (XO) [4]; 310 K): -24.11 ± 0.34 kJ/mol
- Kq (quenching rate constant) (Xanthine oxidase (XO) [4]; 310 K): 1.455e+13 M⁻¹ s⁻¹
- XO fluorescence intensity decreased to (Xanthine oxidase (XO) [4]; EA […] μmol/L, 404 nm, Ex 280 nm): 14.15%
- △H (Xanthine oxidase (XO) [4]; [11]): -23.07 ± 0.25 kJ/mol
- △S (Xanthine oxidase (XO) [4]; [11]): 3.36 ± 0.03 J/mol/K
- Serum uric acid ([1]; 160 mg/kg intragastrically after PO 250 mg/kg i.p., MG 6.18 ± 0.18): 5.09 ± 0.57 mg/dL
- Serum uric acid ([1]; 320 mg/kg intragastrically after PO 250 mg/kg i.p., MG 6.18 ± 0.18): 4.19 ± 0.53 mg/dL
- Serum uric acid ([1]; 480 mg/kg intragastrically after PO 250 mg/kg i.p., MG 6.18 ± 0.18): 2.87 ± 0.41 mg/dL
- NOEL, estimated value for mice (mice): 4215 mg/kg/day
- Safe dietary supplement dose (rats; rat, in vivo): ≤ 3011 mg/kg/day
- Safe dietary supplement level (rats; rat, in vivo): up to 5%
- no-observed-effect level (NOEL) (rats; rats): 3011 mg/kg/day
- IC50 (Xanthine oxidase (XO) [5]; T = 298 K, pH 7.4, [xanthine] = 0.1 mmol/L, [XO] = 0.04 U/mL, read-out: IC50 (XO inhibition)): 22.97 ± 0.12 µM
- Reversibility of XO inhibition (Xanthine oxidase (XO) [5]; plots of ν versus [XO], [xanthine] = 0.1 mmol/L): reversible inhibitor
- IC50 (xanthine oxidase (XO) [6]): 3.1 µM
- IC50 (xanthine oxidase (XO) [7]): 6.5 µM
- IC50 (xanthine oxidase (XO) [8]): 166 µM
- Bioavailability [9]: very poor
- Permeability [9]: limited
- Solubility [9]: low
- IC50 (xanthine oxidase (XO) [10]): 71.5 µM
